Drawing on ChEMBL document CHEMBL4418912, “Methods of identifying antagonists of the hTAS2R46 bitter taste receptor” (2014), this text covers Activity and inhibition for 2 compounds.

Holding throughout (assay type): functional, cell-based
Test [1] concerns the target T1, Taste receptor type 2 member 10 (Homo sapiens) (UniProt Q9NYW0).
T1 sequence (whole entry): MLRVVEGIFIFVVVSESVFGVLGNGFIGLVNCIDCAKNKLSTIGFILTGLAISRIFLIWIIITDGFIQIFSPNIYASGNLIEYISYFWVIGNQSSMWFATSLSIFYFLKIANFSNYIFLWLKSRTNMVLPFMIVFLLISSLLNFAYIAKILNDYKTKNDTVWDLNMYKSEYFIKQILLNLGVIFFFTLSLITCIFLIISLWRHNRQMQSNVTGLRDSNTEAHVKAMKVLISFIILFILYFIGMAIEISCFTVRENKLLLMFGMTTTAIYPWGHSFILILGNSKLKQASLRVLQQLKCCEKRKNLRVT
The test is described as follows: Competitive-antagonist activity at recombinant human N-terminal rat ST3 receptor-fused TAS2R10 expressed in HEK293T cells co-expressing Galpha16gust44 assessed as inhibition of strychnine-induced increase in intracellular calcium level by measuring maximum signal amplitude at 30 uM by FLIPR assay (reference value: 0.42 +/- 0.09 a.u.).

The target in test [2] is Taste receptor type 2 member 45 (Homo sapiens) (UniProt P59539). The test is described as follows: Agonist activity at recombinant human N-terminal rat ST3 receptor-fused TAS2R45 expressed in HEK293T cells co-expressing Galpha16gust44 assessed as increase in intracellular calcium level at 100 uM by FLIPR assay.
Taste receptor type 2 member 45 (Homo sapiens), sequence (P59539 whole entry, the tested form may be a part): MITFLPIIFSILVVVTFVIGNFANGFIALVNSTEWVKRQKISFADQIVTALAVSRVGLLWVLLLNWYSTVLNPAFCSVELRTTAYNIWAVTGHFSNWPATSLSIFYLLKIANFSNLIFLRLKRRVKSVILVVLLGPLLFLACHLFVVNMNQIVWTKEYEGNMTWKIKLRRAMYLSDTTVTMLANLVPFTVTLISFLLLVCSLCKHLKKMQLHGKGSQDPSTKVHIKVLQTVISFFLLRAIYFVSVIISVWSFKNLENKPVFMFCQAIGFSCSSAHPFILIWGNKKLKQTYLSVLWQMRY
In test [3] the target is T2, Taste receptor type 2 member 30 (Homo sapiens) (UniProt P59541).
T2 sequence (whole entry): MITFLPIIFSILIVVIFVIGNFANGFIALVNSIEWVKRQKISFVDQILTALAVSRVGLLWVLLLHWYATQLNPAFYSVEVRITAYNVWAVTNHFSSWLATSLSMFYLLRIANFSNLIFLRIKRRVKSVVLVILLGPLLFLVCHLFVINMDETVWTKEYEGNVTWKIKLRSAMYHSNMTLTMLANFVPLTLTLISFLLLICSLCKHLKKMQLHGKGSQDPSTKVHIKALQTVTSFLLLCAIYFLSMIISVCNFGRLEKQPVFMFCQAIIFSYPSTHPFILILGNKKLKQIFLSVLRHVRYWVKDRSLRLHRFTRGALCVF
The test is described as follows: Agonist activity at recombinant human N-terminal rat ST3 receptor-fused TAS2R47 expressed in HEK293T cells co-expressing Galpha16gust44 assessed as increase in intracellular calcium level at 100 uM by FLIPR assay.

In test [4] the target is T3, Taste receptor type 2 member 50 (Homo sapiens) (UniProt P59544).
T3 sequence (whole entry): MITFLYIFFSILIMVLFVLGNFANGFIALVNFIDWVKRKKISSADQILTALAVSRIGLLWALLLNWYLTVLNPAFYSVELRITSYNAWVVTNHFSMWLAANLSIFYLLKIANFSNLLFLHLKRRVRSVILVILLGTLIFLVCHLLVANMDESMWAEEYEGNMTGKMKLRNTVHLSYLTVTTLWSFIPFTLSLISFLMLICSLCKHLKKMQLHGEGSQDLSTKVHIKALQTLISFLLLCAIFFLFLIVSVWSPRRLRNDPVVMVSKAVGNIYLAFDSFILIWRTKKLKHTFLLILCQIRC
As to the kind of experiment: Agonist activity at recombinant human N-terminal rat ST3 receptor-fused TAS2R50 expressed in HEK293T cells co-expressing Galpha16gust44 assessed as increase in intracellular calcium level at 100 uM by FLIPR assay.

The target of test [5] is T4, Taste receptor type 2 member 1 (Homo sapiens) (UniProt Q9NYW7).
T4 sequence (whole entry): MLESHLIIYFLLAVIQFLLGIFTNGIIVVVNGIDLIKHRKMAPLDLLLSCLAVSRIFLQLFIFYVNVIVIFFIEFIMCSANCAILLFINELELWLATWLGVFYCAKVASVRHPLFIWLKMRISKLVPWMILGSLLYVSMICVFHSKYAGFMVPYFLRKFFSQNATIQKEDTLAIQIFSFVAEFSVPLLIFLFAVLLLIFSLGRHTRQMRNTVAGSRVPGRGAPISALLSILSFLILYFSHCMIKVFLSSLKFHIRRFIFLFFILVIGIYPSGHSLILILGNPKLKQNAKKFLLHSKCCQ
The test is described as follows: Agonist activity at recombinant human N-terminal rat ST3 receptor-fused TAS2R1 expressed in HEK293T cells co-expressing Galpha16gust44 assessed as increase in intracellular calcium level at 100 uM by FLIPR assay.

The target of test [6] is T5, Taste receptor type 2 member 4 (Homo sapiens) (UniProt Q9NYW5).
T5 sequence (whole entry): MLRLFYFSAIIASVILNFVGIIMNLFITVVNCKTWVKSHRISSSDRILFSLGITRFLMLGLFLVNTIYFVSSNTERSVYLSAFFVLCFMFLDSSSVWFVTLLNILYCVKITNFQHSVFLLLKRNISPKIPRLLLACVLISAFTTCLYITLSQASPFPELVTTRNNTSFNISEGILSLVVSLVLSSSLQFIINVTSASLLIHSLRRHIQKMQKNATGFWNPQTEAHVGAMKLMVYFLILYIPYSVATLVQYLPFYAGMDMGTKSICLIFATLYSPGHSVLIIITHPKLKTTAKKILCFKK
As to the kind of experiment: Agonist activity at recombinant human N-terminal rat ST3 receptor-fused TAS2R4 expressed in HEK293T cells co-expressing Galpha16gust44 assessed as increase in intracellular calcium level at 100 uM by FLIPR assay.

Test [7] deals with Taste receptor type 2 member 19 (Homo sapiens) (UniProt P59542). As to the kind of experiment: Agonist activity at recombinant human N-terminal rat ST3 receptor-fused TAS2R48 expressed in HEK293T cells co-expressing Galpha16gust44 assessed as increase in intracellular calcium level at 100 uM by FLIPR assay.
Taste receptor type 2 member 19 (Homo sapiens), sequence (P59542 whole entry, the tested form may be a part): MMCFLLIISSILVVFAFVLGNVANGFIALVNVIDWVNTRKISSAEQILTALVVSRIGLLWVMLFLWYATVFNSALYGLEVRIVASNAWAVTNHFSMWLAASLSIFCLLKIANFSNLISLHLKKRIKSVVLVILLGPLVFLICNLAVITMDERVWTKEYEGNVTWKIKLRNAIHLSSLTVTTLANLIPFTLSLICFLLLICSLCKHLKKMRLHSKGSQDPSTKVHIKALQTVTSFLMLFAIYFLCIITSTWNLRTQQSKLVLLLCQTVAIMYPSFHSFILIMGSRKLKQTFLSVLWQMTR
Test [8] concerns the target Taste receptor type 2 member 60 (Homo sapiens) (UniProt P59551). The test is described as follows: Agonist activity at recombinant human N-terminal rat ST3 receptor-fused TAS2R60 expressed in HEK293T cells co-expressing Galpha16gust44 assessed as increase in intracellular calcium level at 100 uM by FLIPR assay.
Test [9] deals with T6, Taste receptor type 2 member 7 (Homo sapiens) (UniProt Q9NYW3).
T6 sequence (whole entry): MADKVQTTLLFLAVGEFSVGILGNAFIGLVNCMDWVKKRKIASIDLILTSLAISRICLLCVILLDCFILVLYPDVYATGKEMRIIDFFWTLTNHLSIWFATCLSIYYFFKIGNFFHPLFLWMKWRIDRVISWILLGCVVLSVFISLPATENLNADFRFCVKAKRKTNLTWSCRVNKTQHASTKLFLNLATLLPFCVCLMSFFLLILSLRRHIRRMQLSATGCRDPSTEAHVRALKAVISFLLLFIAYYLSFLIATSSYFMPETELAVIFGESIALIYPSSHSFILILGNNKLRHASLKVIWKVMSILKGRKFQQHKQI
The test is described as follows: Antagonist activity at recombinant human N-terminal rat ST3 receptor-fused TAS2R7 expressed in HEK293T cells co-expressing Galpha16gust44 assessed as inhibition of quinine sulfate-induced increase in intracellular calcium level at 100 uM by FLIPR assay.

The source made the active and inactive calls. No cut-off for these calls is given here.

Taste receptor type 2 member 60 (Homo sapiens), sequence (P59551 whole entry, the tested form may be a part): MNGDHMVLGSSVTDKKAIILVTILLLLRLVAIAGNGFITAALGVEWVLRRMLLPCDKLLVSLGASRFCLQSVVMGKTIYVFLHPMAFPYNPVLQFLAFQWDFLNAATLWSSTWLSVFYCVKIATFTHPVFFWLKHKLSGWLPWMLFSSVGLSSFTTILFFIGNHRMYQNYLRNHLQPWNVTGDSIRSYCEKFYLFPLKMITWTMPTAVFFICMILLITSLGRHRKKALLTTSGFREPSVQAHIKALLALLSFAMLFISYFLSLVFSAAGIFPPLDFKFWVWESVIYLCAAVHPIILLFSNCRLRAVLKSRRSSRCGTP

As to `C/C1=C\C[C@H](O)/C(C)=C/[C@H]2OC(=O)[C@@H](C)[C@@H]2CC1`, the Activity in test [1] came to 0.41 a.u. Besides, the outcome in [2], in test [3], in test [4], in [7] and in test [8] was inactive. The outcome in test [5] and in test [6] was Active.

Turning to `C/C1=C\C[C@H](O)[C@@H](C)C[C@H]2OC(=O)[C@@H](C)[C@@H]2CC1`, the inhibition entry in [9] was “inactive”.
